From US20170348258A1, “3-Amino Benzamide Derivative Serving As B-Lactam Auxiliary Antibiotic, Preparation Method and Use Thereof” (THE HONG KONG POLYTECHNIC UNIVERSITY, priority 2014, published 2017)

Tests used:
Type in all cases: cell-based, S. aureus
MRSA strain 358 = experiment: FICI of F332 with antibiotics
MRSA strain 3411 = experiment: FICI of F332 with antibiotics
[1] = tested on: MRSA strain #1749 (ATCC strain); experiment: FICI of F332 with antibiotics
MRSA strain 2919 = experiment: FICI of F332 with antibiotics
MRSA strain 417 = experiment: FICI of F332 with antibiotics
MRSA strain 3580 = experiment: FICI of F332 with antibiotics
MRSA strain 3332 = experiment: FICI of F332 with antibiotics
MRSA strain 3589 = experiment: FICI of F332 with antibiotics
MRSA strain 3267 = experiment: FICI of F332 with antibiotics
MRSA strain 2895 = experiment: FICI of F332 with antibiotics
MRSA strain 1136 = experiment: FICI of F332 with antibiotics
MRSA strain 1344 = experiment: FICI of F332 with antibiotics
MRSA strain 1449 = experiment: FICI of F332 with antibiotics
MRSA strain USA300#2960 = experiment: Fractional Inhibitory Concentration Index (FICI) determination
Protocol: The bacterial strains used in this study were clinically isolated MRSA strains USA300#757 and #2960 which were obtained from our laboratory. Determination of the Fractional Inhibitory Concentration Index (FICI) was adopted by the Müller-Hinton broth (MHB) dilution method as previously described. Twelve serial two-fold dilutions of PC190723, F332 and F361 were prepared in the 96-well microplate with concentration ranging from 512 to 0.25 μg/mL. A series of two-fold dilutions of ampicillin, cloxacillin and cefuroxime were also prepared following the same procedure. Lastly, the compounds and the β-lactams were mixed at a 1:1 ratio and subjected to two-fold dilution as described previously. Each microplate well contained 100 μL of MHB supplemented with compounds alone, β-lactams alone or the mixture of compounds and β-lactams. Overnight cultures of S. aureus in the Müller-Hinton broth was diluted to OD595 of 0.08-0.1 in saline and added in each of the microplate well. The plates were incubated at 37° C. for 20 h. All tests were performed in duplicate and the inhibition of bacterial growth was determined by visualization. The FICI of compounds and β-lactams were calculated as followed: FICI=(MIC of combination of compound and β-lactam/MIC of compound alone)+(MIC of combination of compound and β-lactam/MIC of β-lactam alone).

[2] = tested on: MRSA strain #1717 (ATCC strain); experiment: FICI of F332 with antibiotics
MRSA strain 231 = experiment: FICI of F332 with antibiotics
MRSA strain 2901 = experiment: FICI of F332 with antibiotics

CCCCCCCCCNc1ccc(F)c(C(N)=O)c1F [Compound F332, 2,6-difluoro-3-(nonylamino)benzamide]
FICI of F332 combined with Amoxicillin (MRSA strain 358): 0.27 | FICI of F332 combined with Cefuroxime (MRSA strain 358): 1.13 | FICI of F332 combined with Cloxacillin (MRSA strain 358): 1.06 | FICI of F332 combined with Meropenem (MRSA strain 358): 129.0 | FICI of F332 combined with Meticillin (MRSA strain 358): 0.25 | FICI of F332 combined with Amoxicillin (MRSA strain 3411): 2.02 | FICI of F332 combined with Cefuroxime (MRSA strain 3411): 1.00 | FICI of F332 combined with Cloxacillin (MRSA strain 3411): 0.53 | FICI of F332 combined with Meropenem (MRSA strain 3411): 3.00 | FICI of F332 combined with Meticillin (MRSA strain 3411): 1.02 | FICI of F332 combined with Amoxicillin [1]: 1.03 | FICI of F332 combined with Cefuroxime [1]: 1.13 | FICI of F332 combined with Cloxacillin [1]: 1.25 | FICI of F332 combined with Meropenem [1]: 10.0 | FICI of F332 combined with Meticillin [1]: 1.06 | FICI of F332 combined with Amoxicillin (MRSA strain 2919): 0.51 | FICI of F332 combined with Cefuroxime (MRSA strain 2919): 0.25 | FICI of F332 combined with Cloxacillin (MRSA strain 2919): 0.31 | FICI of F332 combined with Meropenem (MRSA strain 2919): 4.25 | FICI of F332 combined with Meticillin (MRSA strain 2919): 0.38 | FICI of F332 combined with Amoxicillin (MRSA strain 417): 0.27 | FICI of F332 combined with Cefuroxime (MRSA strain 417): 0.06 | FICI of F332 combined with Cloxacillin (MRSA strain 417): 0.09 | FICI of F332 combined with Meropenem (MRSA strain 417): 0.19 | FICI of F332 combined with Meticillin (MRSA strain 417): 0.06 | FICI of F332 combined with Amoxicillin (MRSA strain 3580): 0.28 | FICI of F332 combined with Cefuroxime (MRSA strain 3580): 0.06 | FICI of F332 combined with Cloxacillin (MRSA strain 3580): 0.53 | FICI of F332 combined with Meropenem (MRSA strain 3580): 1.25 | FICI of F332 combined with Meticillin (MRSA strain 3580): 0.19 | FICI of F332 combined with Amoxicillin (MRSA strain 3332): 0.63 | FICI of F332 combined with Cefuroxime (MRSA strain 3332): 0.13 | FICI of F332 combined with Cloxacillin (MRSA strain 3332): 0.38 | FICI of F332 combined with Meropenem (MRSA strain 3332): 2.25 | FICI of F332 combined with Meticillin (MRSA strain 3332): 0.28 | FICI of F332 combined with Amoxicillin (MRSA strain 3589): 1.06 | FICI of F332 combined with Cefuroxime (MRSA strain 3589): 0.25 | FICI of F332 combined with Cloxacillin (MRSA strain 3589): 0.31 | FICI of F332 combined with Meropenem (MRSA strain 3589): 1.50 | FICI of F332 combined with Meticillin (MRSA strain 3589): 0.52 | FICI of F332 combined with Amoxicillin (MRSA strain 3267): 0.25 | FICI of F332 combined with Cefuroxime (MRSA strain 3267): 0.01 | FICI of F332 combined with Cloxacillin (MRSA strain 3267): 0.25 | FICI of F332 combined with Meropenem (MRSA strain 3267): 4.01 | FICI of F332 combined with Meticillin (MRSA strain 3267): 0.07 | FICI of F332 combined with Amoxicillin (MRSA strain 2895): 1.06 | FICI of F332 combined with Cefuroxime (MRSA strain 2895): 0.31 | FICI of F332 combined with Cloxacillin (MRSA strain 2895): 0.38 | FICI of F332 combined with Meropenem (MRSA strain 2895): 2.13 | FICI of F332 combined with Meticillin (MRSA strain 2895): 0.31 | FICI of F332 combined with Amoxicillin (MRSA strain 1136): 1.03 | FICI of F332 combined with Cefuroxime (MRSA strain 1136): 0.13 | FICI of F332 combined with Cloxacillin (MRSA strain 1136): 0.38 | FICI of F332 combined with Meropenem (MRSA strain 1136): 4.50 | FICI of F332 combined with Meticillin (MRSA strain 1136): 0.31 | FICI of F332 combined with Amoxicillin (MRSA strain 1344): 1.13 | FICI of F332 combined with Cefuroxime (MRSA strain 1344): 0.27 | FICI of F332 combined with Cloxacillin (MRSA strain 1344): 0.13 | FICI of F332 combined with Meropenem (MRSA strain 1344): 2.00 | FICI of F332 combined with Meticillin (MRSA strain 1344): 0.27 | FICI of F332 combined with Amoxicillin (MRSA strain 1449): 0.38 | FICI of F332 combined with Cefuroxime (MRSA strain 1449): 1.50 | FICI of F332 combined with Cloxacillin (MRSA strain 1449): 0.63 | FICI of F332 combined with Meropenem (MRSA strain 1449): 33.0 | FICI of F332 combined with Meticillin (MRSA strain 1449): 0.75 | FICI with Ampicillin (MRSA strain USA300#2960): 0.28 | FICI with Cefotaxime (MRSA strain USA300#2960): 0.38 | FICI with Cefuroxime (MRSA strain USA300#2960): 0.38 | FICI with Cloxacillin (MRSA strain USA300#2960): 1.02 | FICI with Meropenem (MRSA strain USA300#2960): 0.28 | FICI of F332 combined with Amoxicillin [2]: 1.06 | FICI of F332 combined with Cefuroxime [2]: 1.13 | FICI of F332 combined with Cloxacillin [2]: 2.50 | FICI of F332 combined with Meropenem [2]: 3.00 | FICI of F332 combined with Meticillin [2]: 1.13 | FICI of F332 combined with Amoxicillin (MRSA strain 231): 0.52 | FICI of F332 combined with Cefuroxime (MRSA strain 231): 0.50 | FICI of F332 combined with Cloxacillin (MRSA strain 231): 0.28 | FICI of F332 combined with Meropenem (MRSA strain 231): 0.63 | FICI of F332 combined with Meticillin (MRSA strain 231): 0.50 | FICI of F332 combined with Amoxicillin (MRSA strain 2901): 0.06 | FICI of F332 combined with Cefuroxime (MRSA strain 2901): 0.13 | FICI of F332 combined with Cloxacillin (MRSA strain 2901): 0.25 | FICI of F332 combined with Meropenem (MRSA strain 2901): 4.01 | FICI of F332 combined with Meticillin (MRSA strain 2901): 0.01

CCCCCCCCCN(C)c1ccc(F)c(C(N)=O)c1F [Compound F361, 2,6-difluoro-3-(methyl(nonyl)amino)benzamide]
FICI with Cefotaxime (MRSA strain USA300#2960): 1.00 | FICI with Meropenem (MRSA strain USA300#2960): 0.28
